According to ChEMBL document CHEMBL4190350, “Synthesis, antimicrobial, antiquorum-sensing, antitumor and cytotoxic activities of new series of cyclopenta(hepta)[b]thiophene and fused cyclohepta[b]thiophene analogs” (Eur J Med Chem, 2017):

Legend:
Staphylococcus aureus = assay: Antimicrobial activity against Staphylococcus aureus incubated for 24 hrs by disc diffusion assay; format: functional
MCF7 = assay: Antitumor activity against human MCF7 cells assessed as inhibition of cell viability incubated for 48 hrs by MTT assay; format: functional, cell-based; details: MCF7, 48 h
Candida albicans = assay: Antimicrobial activity against Candida albicans incubated for 48 hrs by disc diffusion assay; format: functional
HT-29 = assay: Antitumor activity against human HT-29 cells assessed as inhibition of cell viability incubated for 48 hrs by MTT assay; format: functional, cell-based; details: HT-29, 48 h
Bacillus cereus = assay: Antimicrobial activity against Bacillus cereus incubated for 24 hrs by disc diffusion assay; format: functional
Escherichia coli = assay: Antimicrobial activity against Escherichia coli incubated for 24 hrs by disc diffusion assay; format: functional
[1] = test system: Chromobacterium violaceum; assay: Inhibition of quorum sensing system in Chromobacterium violaceum ATCC 12472 assessed as inhibition of violacein production at 5 mg/mL incubated for 48 hrs
Aspergillus fumigatus = assay: Antimicrobial activity against Aspergillus fumigatus incubated for 48 hrs by disc diffusion assay; format: functional
HepG2 = assay: Antitumor activity against human HepG2 cells assessed as inhibition of cell viability incubated for 48 hrs by MTT assay; format: functional, cell-based; details: HepG2, 48 h

| IC50 (MCF7) | IC50 (HT-29) | INH [1] | IC50 (HepG2) | SMILES | diameter of the inhibition zone (DIZ) (Staphylococcus aureus) | diameter of the inhibition zone (DIZ) (Candida albicans) | diameter of the inhibition zone (DIZ) (Bacillus cereus) | diameter of the inhibition zone (DIZ) (Escherichia coli) | diameter of the inhibition zone (DIZ) (Aspergillus fumigatus) |
| --- | --- | --- | --- | --- | --- | --- | --- | --- | --- |
| > 100 µM | > 100 µM | < 2 mm | > 100 µM | CCOC(=O)C(=NNc1sc2c(c1C(=O)OCC)CCC2)C(=O)OCC | 9 mm | <2 mm | 5 mm | 7 mm | <2 mm |
| 45.5 µM | 72.1 µM | 8 mm | 58.2 µM | CCOC(=O)/C(C#N)=N/Nc1sc2c(c1C(=O)OCC)CCC2 | 11 mm | <2 mm | 7 mm | 7 mm | <2 mm |
| 70.9 µM | 92.8 µM | 4 mm | > 100 µM | CCOC(=O)/C(C#N)=N/Nc1sc2c(c1C(=O)OCC)CCCCC2 | 7 mm | 5 mm | 5 mm | <2 mm | <2 mm |
| 19.1 µM | 27.3 µM | < 2 mm | 22.7 µM | N#Cc1c(O)c2c3c(sc2[nH]c1=O)CCCCC3 | <2 mm | <2 mm | 3 mm | 3 mm | 8 mm |
| 52.4 µM | 88.1 µM | < 2 mm | 42.3 µM | CCOC(=O)c1c(N/N=C2\C(=O)NN=C2C)sc2c1CCCCC2 | <2 mm | 10 mm | <2 mm | <2 mm | <2 mm |
| – | – | 2 mm | – | Oc1cc(O)c2c(c1)O[C@H](c1ccc(O)c(O)c1)[C@@H](O)C2 | – | – | – | – | – |
| 60.4 µM | > 100 µM | 2 mm | > 100 µM | CCOC(=O)c1c(NC(=O)CC#N)sc2c1CCCCC2 | <2 mm | 14 mm | <2 mm | <2 mm | <2 mm |
| 62.8 µM | > 100 µM | < 2 mm | 89.7 µM | CCOC(=O)c1c(NC(=O)CC(C)=O)sc2c1CCCCC2 | <2 mm | <2 mm | <2 mm | <2 mm | <2 mm |
| 41.2 µM | 66.7 µM | 5 mm | 81.7 µM | CC1=NNC(=O)/C1=N\Nc1sc2c(c1C(=O)NN)CCCCC2 | <2 mm | <2 mm | <2 mm | <2 mm | <2 mm |
| 54 µM | 86.8 µM | < 2 mm | 76.3 µM | CCOC(=O)C(=NNc1sc2c(c1C(=O)OCC)CCCCC2)C(=O)OCC | 5 mm | <2 mm | <2 mm | <2 mm | <2 mm |
| 57.2 µM | 84.5 µM | < 2 mm | 92.4 µM | CCOC(=O)c1c(N/N=C2\C(=O)NN=C2C)sc2c1CCC2 | 7 mm | 8 mm | <2 mm | <2 mm | <2 mm |
